Key:
MMP-3 = molecular target: T1, MMP-3 (Homo sapiens, UniProt P08254); assay: Enzyme inhibition assay, fluorometric substrate degradation, MMP-3; type: biochemical; details: Minienzyme used; read-out: Inhibition Potencies, IC50, MMP-3
T1 construct: purchased Chemicon
Procedure: (§1) Human rMMP-2 and -9 were purified in active forms, and purified MMP-1, -3 and -13 were obtained from commercial sources (Chemicon; Temecula, Calif.) in zymogen form and were activated by 1 mM APMA or PCMB treatment (2 hrs at 37° C.). For kinetic studies, a standard fluorimetric assay based on hydrolysis of fluorogenic synthetic substrate (1 μM of McaPLGLDpaAR) was used. For each assay, target MMP (1 μM) and increasing concentrations of test compound were incubated at 25° C. for 30-60 min and the rate of substrate hydrolysis was measured by Perkin-Elmer fluorometer at an excitation 328 nm and an emission 393 nm settings. Both concentration and time-dependent cleavage were monitored. Controls included trypsin (non-specific cleavage) and bacterial collagenase (total cleavage) and other zinc-protease (ACE, endopeptidase). IC50 values (the concentration at which 50% enzyme activity is inhibited) were determined by plots of % activity versus negative log of agent concentration. The IC50 values were converted to Ki values using the equation, Ki=IC50/(1+S/Km). The Km values (μM) were calculated from the […] values of 3-5 separate experiments. Inhibition kinetics of various MMPs were also determined using substrate-degradation ELISA kits from Chemicon (Temecula, Calif.). See C. Knight, et al., FEBS Lett., 1992, 296, 263-266; L. Windsor, et al., Biochem. Biophys. Acta […], 1334, 261-272, which are incorporated by reference herein for their teachings of enzyme inhibition assays.
MMP inhibitor selectivity determinations: Both quantitative labeled-substrate and FITC-biopeptide (matrix-specific) assays were used to examine the selective inhibition of MMP activities. Substrate specificity for MMP-1, -2, and -9 was assessed by degradation of labeled-collagen I and IV. Typically, MMP-dependent biomatrix degradation was monitored in the presence and absence of candidate compounds (0.5-500 μm) after 60-90 min incubations. Inhibitory potency and selectivity was also analyzed using a gelatin or collagen zymography followed by densitometric analysis. […]

[1] = Cell proliferation and cell viability at the tested concentrations; type: cell-based; details: at the tested concentrations (data not shown)
HF [2] = assay: Amgel human tumor cell invasion bioassay, HF; type: cell-based; details: 72 hours incubation at 50-100 μM
HT-1080R [3] = assay: Amgel human tumor cell invasion bioassay, HT-1080R; type: cell-based; details: 72 hours incubation at 50-100 μM
Procedure: (§2) Human tumor cell invasion bioassay: Amgel-coated filters (8 μm) were used as tissue biomatrix barriers placed between Lucite chambers. Labeled cells (50,000) were seeded onto reconstituted-Amgel filters (75 μg) and the lower chambers were filled with media containing 5% dialyzed serum. Test compounds (0.5-100 μM) were added and incubated for 72 hours. Contents from the lower chamber were collected to resolve cell-bound and free radioactivity. See G. Siegal, et al., Cancer Lett. 1993, 69, 123-132; L. Goodly, et al., Tumor Biology 1994, 15, 326-336; M. Ikeda, et al., Clin. Cancer. Res. 2000, 6, 3290-3296; R. Singh, et al., In Vitro Cell Develop. Biol., 2002, 38, 11.
(§3) Evaluation of the compounds 1c and 2c in Amgel human tumor invasion and angiogenesis models (72 hours incubation at 50-100 μM) was performed using two human HT-1080 cancer cell sublines (HT-1080-B and HT-1080-R). The results of these assays with compound 2c are shown in Table 2 and FIG. 1 (data for compound 1 c not shown).

HT-1080B [4] = assay: Amgel human tumor cell invasion bioassay, HT-1080B; type: cell-based; details: 72 hours incubation at 50-100 μM
Procedure: as §2, §3

[5] = tested on: nontumorigenic human fibroblasts cells (HF); assay: Functional evaluation in Amgel models, nontumorigenic fibroblasts; type: cell-based
HF [6] = assay: Amgel human tumor angiogenesis bioassay, HF; type: cell-based; details: 72 hours incubation at 50-100 μM
Procedure: (§4) Human tumor angiogenesis bioassay: Angiogenesis was induced by coculture of human endothelial cells (HUVECs) with tumor cells or defined angiogenic factor (FGF). Tumor cells media (from 24-hour serum-free cultures) were used to induce a biological angiogenic response using human glioma cell lines producing different concentrations of VEGF or by using purified factors such as 20 μM FGF. Endothelial cells were seeded onto Amgel-coated filters and induced with a angiogenic media+/−candidate MMP inhibitors. Varying concentrations of test compounds (0.5-500 μM) and incubation times (1-7 days) were applied, and endothelial cell differentiation (sprouting and tubule-like capillary formation) were examined by light microscopy and a computerized digital system.
as §3

Endopeptidase = assay: Enzyme inhibition assay, endopeptidase (other zinc-protease control); type: biochemical; details: for IC50: read-out: Inhibition Potencies, IC50, Endopeptidase
Procedure: as §1

MMP-9 = molecular target: T2, MMP-9 (Homo sapiens, UniProt P14780); assay: Enzyme inhibition assay, fluorometric substrate degradation, MMP-9; type: biochemical; details: purified human rMMP-9, fluorogenic substrate; read-out: Inhibition Potencies, IC50, MMP-9
T2 construct: Human rMMP-2 and -9 were purified in active forms; made in house
T2 sequence (P14780 107-707 limits assumed): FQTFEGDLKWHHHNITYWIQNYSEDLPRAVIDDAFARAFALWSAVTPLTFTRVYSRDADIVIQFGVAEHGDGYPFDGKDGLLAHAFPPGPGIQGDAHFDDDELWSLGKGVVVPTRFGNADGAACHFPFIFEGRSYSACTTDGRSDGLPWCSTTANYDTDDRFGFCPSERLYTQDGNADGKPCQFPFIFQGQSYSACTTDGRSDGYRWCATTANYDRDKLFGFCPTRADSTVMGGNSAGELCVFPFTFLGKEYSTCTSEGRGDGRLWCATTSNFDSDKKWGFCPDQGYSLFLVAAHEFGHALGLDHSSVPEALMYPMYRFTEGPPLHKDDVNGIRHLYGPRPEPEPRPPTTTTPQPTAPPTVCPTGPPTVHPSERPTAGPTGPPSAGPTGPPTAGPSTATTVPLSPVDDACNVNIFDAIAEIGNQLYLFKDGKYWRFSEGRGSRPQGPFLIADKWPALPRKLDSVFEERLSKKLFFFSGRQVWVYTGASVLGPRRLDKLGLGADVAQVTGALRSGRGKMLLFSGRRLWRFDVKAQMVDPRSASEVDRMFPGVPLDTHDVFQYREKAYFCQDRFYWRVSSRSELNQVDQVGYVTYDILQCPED
Procedure: (§5) For kinetic studies, a standard fluorimetric assay based on hydrolysis of fluorogenic synthetic substrate (1 μM of McaPLGLDpaAR) was used. […] Both concentration and time-dependent cleavage were monitored. Controls included trypsin (non-specific cleavage) and bacterial collagenase (total cleavage) and other zinc-protease (ACE, endopeptidase). […] The IC50 values were converted to Ki values using the equation, Ki=IC50/(1+S/Km). […] Inhibition kinetics of various MMPs were also determined using substrate-degradation ELISA kits from Chemicon (Temecula, Calif.). See C.
(§6) Substrate specificity for MMP-1, -2, and -9 was assessed by degradation of labeled-collagen I and IV. […] Inhibitory potency and selectivity was also analyzed using a gelatin or collagen zymography followed by densitometric analysis. Labeled collagen I or IV degradation assay (zymography) was used for M-1, -2 and -9 activities and their inhibition. Bacterial collagenase and EDTA (10 mM) was included as positive and negative controls. In situ zymography film technique was also used for measurement of MMP-2 and MMP-9 (gelatinolytic) activities and their inhibition by drug treatment in target cells and tissue samples.

HT-1080B [7] = assay: Amgel human tumor angiogenesis bioassay, HT-1080B; type: cell-based; details: 72 hours incubation at 50-100 μM
Procedure: as §4, §3

HT-1080R [8] = assay: Amgel human tumor angiogenesis bioassay, HT-1080R; type: cell-based; details: 72 hours incubation at 50-100 μM
Procedure: as §4, §3

MMP-2 = molecular target: T3, MMP-2 (Homo sapiens, UniProt P08253); assay: Enzyme inhibition assay, fluorometric substrate degradation, MMP-2; type: biochemical; details: purified human rMMP-2, fluorogenic substrate; read-out: Inhibition Potencies, IC50, MMP-2
T3 construct: Human rMMP-2 and -9 were purified in active forms; made in house
T3 sequence (P08253 110-660): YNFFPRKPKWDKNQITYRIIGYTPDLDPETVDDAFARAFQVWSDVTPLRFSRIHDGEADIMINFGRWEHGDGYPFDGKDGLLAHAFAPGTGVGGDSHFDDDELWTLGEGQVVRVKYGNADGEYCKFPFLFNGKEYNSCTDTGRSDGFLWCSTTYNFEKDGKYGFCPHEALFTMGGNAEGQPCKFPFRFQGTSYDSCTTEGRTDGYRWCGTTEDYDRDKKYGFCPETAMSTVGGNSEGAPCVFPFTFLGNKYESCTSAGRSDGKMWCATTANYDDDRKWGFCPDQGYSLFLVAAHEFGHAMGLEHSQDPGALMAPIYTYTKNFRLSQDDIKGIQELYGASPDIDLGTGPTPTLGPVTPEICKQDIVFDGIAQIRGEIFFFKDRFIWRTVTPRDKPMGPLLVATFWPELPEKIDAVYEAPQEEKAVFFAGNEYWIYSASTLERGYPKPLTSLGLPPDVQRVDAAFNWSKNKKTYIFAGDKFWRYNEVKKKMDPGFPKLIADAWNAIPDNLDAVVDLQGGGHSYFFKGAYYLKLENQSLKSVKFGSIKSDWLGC
Procedure: as §5, §6

T1 sequence (P08254 100-477, species assumed): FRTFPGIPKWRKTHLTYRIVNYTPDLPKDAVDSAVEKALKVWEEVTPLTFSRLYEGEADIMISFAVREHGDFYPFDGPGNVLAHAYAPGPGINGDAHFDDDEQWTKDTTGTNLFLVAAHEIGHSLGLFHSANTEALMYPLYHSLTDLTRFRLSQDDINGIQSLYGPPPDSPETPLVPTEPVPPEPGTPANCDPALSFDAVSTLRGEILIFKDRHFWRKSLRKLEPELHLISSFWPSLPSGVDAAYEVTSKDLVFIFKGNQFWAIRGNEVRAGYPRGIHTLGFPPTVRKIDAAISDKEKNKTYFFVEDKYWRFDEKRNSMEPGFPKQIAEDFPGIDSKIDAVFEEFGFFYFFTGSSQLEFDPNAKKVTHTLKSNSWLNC

| SMILES | melting point [°C] | IC50 (MMP-3) [µM] | effect on cell proliferation [1] | effect on cell viability [1] | % Inhibition, Tumor invasion (HF [2]) | % Inhibition, Tumor invasion (HT-1080R [3]) [%] | % Inhibition, Tumor invasion (HT-1080B [4]) [%] | effect on nontumorigenic human fibroblasts cells (HF) [5] | % Inhibition, Tumor angiogenesis (HF [6]) | IC50 (Endopeptidase) [µM] | IC50 (MMP-9) [µM] | % Inhibition, Tumor angiogenesis (HT-1080B [7]) [%] | % Inhibition, Tumor angiogenesis (HT-1080R [8]) [%] | IC50 (MMP-2) [µM] | Inhibition Potencies, IC50, Endopeptidase (Endopeptidase) |
| --- | --- | --- | --- | --- | --- | --- | --- | --- | --- | --- | --- | --- | --- | --- | --- |
| O=C(NO)[C@@H]1CCCC[C@H]1NS(=O)(=O)c1ccc(Oc2ccccc2)cc1 (relative stereo) [compound 2d, (trans)-N-Hydroxy-2-[(4-Phenoxybenzenesulfonyl)amino]cyclohexane-carboxamide] | 182 to 184 |  |  |  |  |  |  |  |  |  |  |  |  |  |  |
| O=C(NO)[C@@H]1CCCC[C@H]1NS(=O)(=O)c1ccc(-c2ccccc2)cc1 (racemic) [compound 2c, (trans)-N-Hydroxy-2-[[(4-Biphenyl)sulfonyl]amino]cyclohexanecarbox-amide] | 212 to 214 | > 3 | no effect | no effect | No effect | 60 ± 5 | 50 ± 8 | neither compound 1c nor compound 2c had any effect | No effect | > 20 | 0.145 | 45 ± 4 | 40 ± 6 | 0.125 |  |
| O=C(NO)[C@@H]1CCCC[C@@H]1NS(=O)(=O)c1ccc(-c2ccccc2)cc1 (racemic) [compound 1c, (cis)-N-Hydroxy-2-[[(4-Biphenyl)sulfonyl]amino]cyclohexanecarboxamide] | 74 to 76 | > 3 | no effect | no effect |  |  |  | neither compound 1c nor compound 2c had any effect |  | > 20 | 0.175 |  |  | 0.15 |  |
| CNC(=O)[C@H](Cc1c[nH]c2ccccc12)NC(=O)[C@@H](CC(=O)NO)CC(C)C [GM-6001, reference compound] |  | 0.08 |  |  |  |  |  |  |  |  |  |  |  |  | not detectable |

— patent US8129406B2, “Nonpeptide inhibitors of matrix metalloproteinases” (Southern Research Institute, priority 2004, dated 2012)
